pIC50: −log10 of the molar value.
Molecular target: T1, human TLR9 (Homo sapiens, UniProt Q9NR96)
T1 sequence (Q9NR96 26-1032): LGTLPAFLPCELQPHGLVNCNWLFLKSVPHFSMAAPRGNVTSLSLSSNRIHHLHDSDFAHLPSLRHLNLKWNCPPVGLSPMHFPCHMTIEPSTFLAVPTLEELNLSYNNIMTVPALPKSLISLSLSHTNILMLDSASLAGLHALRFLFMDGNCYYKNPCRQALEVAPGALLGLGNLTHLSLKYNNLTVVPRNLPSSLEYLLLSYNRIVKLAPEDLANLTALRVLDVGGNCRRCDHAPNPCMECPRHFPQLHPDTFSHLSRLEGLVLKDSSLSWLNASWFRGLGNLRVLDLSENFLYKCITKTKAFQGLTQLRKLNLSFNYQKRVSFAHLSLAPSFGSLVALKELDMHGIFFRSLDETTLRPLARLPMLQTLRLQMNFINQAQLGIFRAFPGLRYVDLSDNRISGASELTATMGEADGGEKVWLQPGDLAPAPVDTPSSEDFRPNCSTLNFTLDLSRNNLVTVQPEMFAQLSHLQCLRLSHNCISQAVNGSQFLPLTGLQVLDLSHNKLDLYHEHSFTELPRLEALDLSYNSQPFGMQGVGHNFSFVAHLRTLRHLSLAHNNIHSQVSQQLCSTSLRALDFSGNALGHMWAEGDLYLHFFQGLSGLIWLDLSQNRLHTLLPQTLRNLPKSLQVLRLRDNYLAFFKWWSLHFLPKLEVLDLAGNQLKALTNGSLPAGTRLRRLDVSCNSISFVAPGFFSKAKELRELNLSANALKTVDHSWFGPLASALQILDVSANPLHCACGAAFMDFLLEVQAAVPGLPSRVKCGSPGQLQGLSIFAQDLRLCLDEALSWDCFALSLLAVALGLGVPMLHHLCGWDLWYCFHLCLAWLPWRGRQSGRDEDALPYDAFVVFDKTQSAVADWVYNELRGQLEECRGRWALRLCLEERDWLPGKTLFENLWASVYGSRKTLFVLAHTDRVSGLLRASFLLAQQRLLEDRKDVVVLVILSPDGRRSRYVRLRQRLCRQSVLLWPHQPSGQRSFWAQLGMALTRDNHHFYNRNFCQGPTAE
Assay: HEK293-Blue-hTLR-9 cells assay (SEAP reporter, ODN2006 stimulation)
Format: cell-based
Conditions: HEK293-Blue-hTLR9 cells, ODN2006 ligand, 20 hrs incubation, antagonist
Protocol: The following tests were carried out in order to determine the activity of the compounds of formula (I) in HEK293-Blue-hTLR-7/8/9 cells assay.
HEK293-Blue-hTLR-9 Cells Assay:
A stable HEK293-Blue-hTLR-9 cell line was purchased from InvivoGen (Cat. #: hkb-htlr9, San Diego, Calif., USA). These cells were originally designed for studying the stimulation of human TLR9 by monitoring the activation of NF-κB. A SEAP (secreted embryonic alkaline phosphatase) reporter gene was placed under the control of the IFN-β minimal promoter fused to five NF-κB and AP-1-binding sites. The SEAP was induced by activating NF-κB and AP-1 via stimulating HEK-Blue hTLR9 cells with TLR9 ligands. Therefore the reporter expression was declined by TLR9 antagonist under the stimulation of a ligand, such as ODN2006 (Cat. #: tlrl-2006-1, Invivogen, San Diego, Calif., USA), for incubation of 20 hrs. The cell culture supernatant SEAP reporter activity was determined using QUANTI-Blue™ kit (Cat. #: rep-qb1, Invivogen, San Diego, Calif., USA) at a wavelength of 640 nm, a detection medium that turns purple or blue in the presence of alkaline phosphatase.
HEK293-Blue-hTLR9 cells were incubated at a density of […] cells/mL in a volume of 170 μL in a 96-well plate in Dulbecco's Modified Eagle's medium (DMEM) containing 4.5 g/L glucose, 50 U/mL penicillin, […], 2 mM L-glutamine, 10% (v/v) heat-inactivated fetal bovine serum with addition of 20 μL test compound in a serial dilution in the presence of final DMSO at 1% and 10 μL of 20 uM ODN2006 in above DMEM, perform incubation under 37° C. in a CO2 incubator for 20 hrs. Then 20 μL of the supernatant from each well was incubated with 180 μL Quanti-blue substrate solution at 37° C. for 2 hrs and the absorbance was read at 620˜655 nm using a spectrophotometer. The signalling pathway that TLR9 activation leads to downstream NF-κB activation has been widely accepted, and therefore similar reporter assay was modified for evaluating TLR9 antagonist.

| SMILES | pIC50 |
| --- | --- |
| C[C@@H]1CN(c2ccc(C#N)c3ncsc23)C[C@H](CN2CCC3(CCCNC3)C2)O1 (stereo partly drawn) [Example 1, 7-[(2S,6R)-2-(2,9-diazaspiro[4.5]decan-2-ylmethyl)-6-methyl-morpholin-4-yl]-1,3-benzothiazole-4-carbonitrile] | 7.06 |
| C[C@@H]1CN(c2ccc(C#N)c3ncsc23)C[C@H](CN2CCC(N)CC2)O1 [Example 2, 7-[(2S,6R)-2-[(4-amino-1-piperidyl)methyl]-6-methyl-morpholin-4-yl]-1,3-benzothiazole-4-carbonitrile] | 6.52 |
| C[C@@H]1CN(c2ccc(C#N)c3ncsc23)C[C@H](CN2CCC3(CCCNC3)CC2)O1 [Example 3, 7-[(2S,6R)-2-(2,9-diazaspiro[5.5]undecan-9-ylmethyl)-6-methyl-morpholin-4-yl]-1,3-benzothiazole-4-carbonitrile] | 7.11 |
| C[C@@H]1CN(c2ccc(C#N)c3ncsc23)C[C@H](CN2CC3(CCCNC3)C2)O1 [Example 4, 7-[(2S,6R)-2-(2,8-diazaspiro[3.5]nonan-2-ylmethyl)-6-methyl-morpholin-4-yl]-1,3-benzothiazole-4-carbonitrile] | 7.00 |
| C[C@@H]1CN(c2ccc(C#N)c3ncsc23)C[C@H](CN2CCC3(CCNCC3)CC2)O1 [Example 5, 7-[(2S,6R)-2-(3,9-diazaspiro[5.5]undecan-3-ylmethyl)-6-methyl-morpholin-4-yl]-1,3-benzothiazole-4-carbonitrile] | 6.84 |
| C[C@@H]1CN(c2ccc(C#N)c3ncsc23)C[C@H](CN2CCC3(CCNC3)CC2)O1 [Example 6, 7-[(2S,6R)-2-(2,8-diazaspiro[4.5]decan-8-ylmethyl)-6-methyl-morpholin-4-yl]-1,3-benzothiazole-4-carbonitrile] | 7.01 |
| C[C@@H]1CN(c2ccc(C#N)c3ncsc23)C[C@H](CN2CCC(N3CCCCC3)CC2)O1 [Example 7, 7-[(2R,6S)-2-methyl-6-[[4-(1-piperidyl)-1-piperidyl]methyl]morpholin-4-yl]-1,3-benzothiazole-4-carbonitrile] | 6.93 |
| C[C@@H]1CN(c2ccc(C#N)c3ncsc23)C[C@H](CN2[C@@H]3CC[C@H]2C[C@@H](N)C3)O1 [Example 8, Endo-7-[(2S,6R)-2-[[(1R,5S)-3-amino-8-azabicyclo[3.2.1]octan-8-yl]methyl]-6-methyl-morpholin-4-yl]-1,3-benzothiazole-4-carbonitrile] | 6.96 |
| C[C@@H]1CN(c2ccc(C#N)c3ncsc23)C[C@H](CN2[C@@H]3CC[C@H]2C[C@H](N)C3)O1 [Example 9, Exo-7-[(2S,6R)-2-[[(1S,5R)-3-amino-8-azabicyclo[3.2.1]octan-8-yl]methyl]-6-methyl-morpholin-4-yl]-1,3-benzothiazole-4-carbonitrile] | 7.19 |
| C[C@@H]1CN(c2ccc(C#N)c3ncsc23)C[C@H](CN2CCC3(CCCN(C)C3)CC2)O1 [Example 10, 7-[(2R,6S)-2-methyl-6-[(2-methyl-2,9-diazaspiro[5.5]undecan-9-yl)methyl]morpholin-4-yl]-1,3-benzothiazole-4-carbonitrile] | 7.11 |
| C[C@@H]1CN(c2ccc(C#N)c3ncsc23)C[C@H](C(=O)NC2CCN(C)CC2)O1 [Example 11, (2R,6R)-4-(4-cyano-1,3-benzothiazol-7-yl)-6-methyl-N-(1-methyl-4-piperidyl)morpholine-2-carboxamide] | 4.76 |
| C[C@@H]1CN(c2ccc(C#N)c3ncsc23)C[C@H](C(=O)NCC2CN(C)CCO2)O1 (stereo partly drawn) [Example 12, (2R,6R)-4-(4-cyano-1,3-benzothiazol-7-yl)-6-methyl-N-[(4-methylmorpholin-2-yl)methyl]morpholine-2-carboxamide] | 4.43 |

Source: US11639352B2, “Benzothiazole compounds for the treatment of autoimmune diseases” (Hoffmann-La Roche Inc., priority 2018, dated 2023)
